Reference: patent US5696143A, “Benz [G] indazolyl derivatives for the treatment of inflammation” (priority 1994, dated 1997)

How the values were obtained:
Human COX II = molecular target: T1, Human COX II (Homo sapiens, UniProt P35354); assay: COX II activity in vitro (PGE2 formed, ELISA; recombinant enzyme, baculovirus/SF9 insect cell membranes); type: biochemical; details: arachidonic acid 10 μM; 10-20 min pre-incubation; pH 8.0; read-out: Human COX II ID50
T1 construct: A 2.0 kb fragment containing the coding region of either human or murine COX-I or human or murine COX-II; made in house; host or cells: SF9 insect cells (recombinant baculovirus, transfer vector pVL1393)
T1 sequence (P35354 18-604): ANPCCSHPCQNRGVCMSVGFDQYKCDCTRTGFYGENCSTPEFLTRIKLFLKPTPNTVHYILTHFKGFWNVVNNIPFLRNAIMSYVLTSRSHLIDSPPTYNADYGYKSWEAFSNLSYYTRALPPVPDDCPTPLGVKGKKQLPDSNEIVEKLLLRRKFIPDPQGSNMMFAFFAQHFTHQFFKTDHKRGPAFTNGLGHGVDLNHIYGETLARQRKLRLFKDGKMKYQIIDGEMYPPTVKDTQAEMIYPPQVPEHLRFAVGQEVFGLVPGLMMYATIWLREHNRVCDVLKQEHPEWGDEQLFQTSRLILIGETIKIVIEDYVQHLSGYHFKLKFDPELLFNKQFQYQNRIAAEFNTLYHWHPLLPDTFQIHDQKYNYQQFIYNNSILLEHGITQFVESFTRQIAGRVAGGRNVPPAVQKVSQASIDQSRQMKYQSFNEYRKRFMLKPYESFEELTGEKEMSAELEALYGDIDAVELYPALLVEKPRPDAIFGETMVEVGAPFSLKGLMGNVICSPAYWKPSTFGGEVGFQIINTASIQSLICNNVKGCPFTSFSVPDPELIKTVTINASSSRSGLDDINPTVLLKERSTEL
Procedure: (§1) Evaluation of COX I and COX II activity in vitro
(§2) The COX II inhibition activity of the compounds of this invention illustrated in the Examples was determined by the following methods.
(§3) a. Preparation of recombinant CQX baculoviruses
(§4) A 2.0 kb fragment containing the coding region of either human or murine COX-I or human or murine COX-II was cloned into a BamH1 site of the baculovirus transfer vector pVL1393 (Invitrogen) to generate the baculovirus transfer vectors for COX-I and COX-II in a manner similar to the method of D. R. O'Reilly et al (Baculovirus Expression Vectors: A Laboratory Manual (1992)). Recombinant baculoviruses were isolated by transfecting 4 μg of baculovirus transfer vector DNA into SF9 insect cells ([…]) along with 200 ng of linearized baculovirus plasmid DNA by the calcium phosphate method. See M. D. Summers and G. E. Smith, A Manual of Methods for Baculovirus Vectors and Insect Cell Culture Procedures, Texas Agric. Exp. Station Bull. 1555 (1987). Recombinant viruses were purified by three rounds of plaque purification and high titer (10E7-10E8 pfu/ml) stocks of virus were prepared. For large scale production, SF9 insect cells were infected in 10 liter fermentors (0.5×10^6 /ml) with the recombinant baculovirus stock such that the multiplicity of infection was 0.1. After 72 hours the cells were centrifuged and the cell pellet homogenized in Tris/Sucrose (50 mM: 25%, pH 8.0) containing 1% 3-[(3-cholamidopropyl)dimethylammonio]-1-propanesulfonate (CHAPS). The homogenate was centrifuged at 10,000×G for 30 minutes, and the resultant supernatant was stored at -80° C. before being assayed for COX activity.
(§5) b. Assay for COX I and COX II activity:
(§6) COX activity was assayed as PGE2 formed/μg protein/time using an ELISA to detect the prostaglandin released. CHAPS-solubilized insect cell membranes containing the appropriate COX enzyme were incubated in a potassium phosphate buffer (50 mM, pH 8.0) containing epinephrine, phenol, and heme with the addition of arachidonic acid (10 μM). Compounds were pre-incubated with the enzyme for 10-20 minutes prior to the addition of arachidonic acid. Any reaction between the arachidonic acid and the enzyme was stopped after ten minutes at 37° C./room temperature by transferring 40 μl of reaction mix into 160 μl ELISA buffer and 25 μM indomethacin. The PGE2 formed was measured by standard ELISA technology (Cayman Chemical).

Human COX I = molecular target: T2, Human COX I (Homo sapiens, UniProt P23219); assay: COX I activity in vitro (PGE2 formed, ELISA; recombinant enzyme, baculovirus/SF9 insect cell membranes); type: biochemical; details: arachidonic acid 10 μM; 10-20 min pre-incubation; pH 8.0; read-out: Human COX I ID50
T2 construct: A 2.0 kb fragment containing the coding region of either human or murine COX-I or human or murine COX-II; made in house; host or cells: SF9 insect cells (recombinant baculovirus, transfer vector pVL1393)
T2 sequence (P23219 24-599): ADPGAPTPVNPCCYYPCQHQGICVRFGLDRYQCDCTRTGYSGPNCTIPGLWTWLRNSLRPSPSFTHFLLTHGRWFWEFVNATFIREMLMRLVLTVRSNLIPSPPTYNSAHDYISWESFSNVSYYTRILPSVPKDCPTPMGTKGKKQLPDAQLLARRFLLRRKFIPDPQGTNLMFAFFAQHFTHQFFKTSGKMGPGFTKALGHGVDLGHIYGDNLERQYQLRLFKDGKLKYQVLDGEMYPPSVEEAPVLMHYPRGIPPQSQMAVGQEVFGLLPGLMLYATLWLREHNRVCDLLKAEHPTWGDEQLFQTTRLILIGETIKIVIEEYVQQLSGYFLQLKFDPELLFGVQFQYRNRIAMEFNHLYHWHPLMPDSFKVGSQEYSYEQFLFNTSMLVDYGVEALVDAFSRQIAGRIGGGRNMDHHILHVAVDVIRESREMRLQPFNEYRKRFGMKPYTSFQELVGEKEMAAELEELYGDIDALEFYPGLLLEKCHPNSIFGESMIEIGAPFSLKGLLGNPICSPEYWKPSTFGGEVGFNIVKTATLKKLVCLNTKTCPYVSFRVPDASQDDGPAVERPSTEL
Procedure: as §1, §2, §3, §4, §5, §6

[1] = tested on: rat paw edema (carrageenan); assay: Rat Carrageenan Foot Pad Edema Test; type: in vivo, Male Sprague-Dawley rats; details: @ 30 mg/kg body weight, oral, 1 h before carrageenan; foot volume 3 h after injection; % decrease from control paw volume
Procedure: Rat Carrageenan Foot Pad Edema Test
The carrageenan foot edema test was performed with materials, reagents and procedures essentially as described by Winter, et al., (Proc. Soc. Exp. Biol. Med., 111, 544 (1962)). Male Sprague-Dawley rats were selected in each group so that the average body weight was as close as possible. Rats were fasted with free access to water for over sixteen hours prior to the test. The rats were dosed orally (1 mL) with compounds suspended in vehicle containing 0.5% methylcellulose and 0.025% surfactant, or with vehicle alone. One hour later a subplantar injection of 0.1 mL of 1% solution of carrageenan/sterile 0.9% saline was administered and the volume of the injected foot was measured with a displacement plethysmometer connected to a pressure transducer with a digital indicator. Three hours after the injection of the carrageenan, the volume of the foot was again measured. The average foot swelling in a group of drug-treated animals was compared with that of a group of placebo-treated animals and the percentage inhibition of edema was determined (Otterhess and Bliven, Laboratory Models for Testing NSAIDs, in Non-steroidal Anti-Inflammatory Drugs, (J. Lombardino, ed. 1985)).

Compound | IC50 (Human COX II) | IC50 (Human COX I) | % Inhibition (rat paw edema) [1]
NS(=O)(=O)c1ccc(-n2nc(C(F)(F)F)c3ccc4ccccc4c32)cc1 [Example 5, 4-[3-(Trifluoromethyl)-1H-benz[g]indazol-1-yl]benzenesulfonamide] | > 100 µM | > 100 µM | 
COc1ccc2c(ccc3cnn(-c4ccc(S(N)(=O)=O)cc4)c32)c1 [Example 4, 4-[7-Methoxy-1H-benz[g]indazol-1-yl]benzenesulfonamide] | > 100 µM | > 100 µM | 
COc1ccc2c(ccc3c(C(F)F)nn(-c4ccc(S(N)(=O)=O)cc4)c32)c1Cl [Example 1, 4-[6-Chloro-3-(difluoromethyl)-7-methoxy-1H-benz[g]indazol-1-yl]benzenesulfonamide] | 1 µM | > 100 µM | 29%

These reach a lower IC50 (Human COX II). Values come first.

IC50 (Human COX II) | IC50 (Human COX I) | Compound | % Inhibition (rat paw edema) [1]
< 0.1 µM | 0.8 µM | COc1ccc2c(ccc3c(C(F)F)nn(-c4ccc(S(N)(=O)=O)cc4)c32)c1 [Example 2, 4-[3-(difluoromethyl)-7-methoxy-1H-benz[g]indazol-1-yl]benzenesulfonamide] | 24%
< 0.1 µM | > 100 µM | COc1ccc2c(ccc3c(C(F)(F)F)nn(-c4ccc(S(N)(=O)=O)cc4)c32)c1 [Example 3, 4-[7-Methoxy-3-(trifluoromethyl)-1H-benz[g]indazol-1-yl]benzenesulfonamide] | 
